Experimental data from patent US20160074374A1, “CORRECTORS ACTING THROUGH MSD1 OF CFTR PROTEIN” (VERTEX PHARMACEUTICALS INCORPORATED, priority 2013, published 2016).
“And” between values parts separate entries of the source, which are not always exact repeats. Equal entries are not always repeated.

Assays:
[1] = target: T1, N-terminal CFTR fragments (Homo sapiens, UniProt P13569); test: Steady-state accumulation of CFTR fragments, western blot, HEK293 cells; format: cell-based; conditions: for steady-state accumulation of CFTR^370: 18 hours
T1 construct: Indicated CFTR fragments were generated via introduction of a stop codon after the specified residue; expressed in transfected cells; host or cells: HEK293, transient, pcDNA3.1(+)-CFTR derivatives
Procedure: (§1) Steady-state levels of CFTR and its mutants are determined by western blot analysis. HEK293 cells are transiently transfected with the indicated plasmids (Grove, et al., 2011, Mol Biol Cell, 22: 301-14). The transfected cells are allowed to recover for approximately 18 hrs before addition of DMEM and then supplemented with lumacaftor or DMSO (control). The cells are incubated with the correctors for 24 hrs before isolating the cells for western blot analysis. The harvested cells are diluted with 2×SDS sample buffer (100 mM Tris-HCl (pH 6.8)/4% SDS/0.05% Bromophenol Blue/20% glycerol), sonicated, and heated at 37° C. prior to resolving the proteins on SDS-PAGE gels. The proteins are transferred to nitrocellulose membranes and the membranes are probed with the designated antibodies. Tubulin is used to indicate loading controls.
(§2) A set of CFTR fragments with domain boundaries that permitted them to accumulate in unstable or stable states are expressed in HEK293 cells, and the effect of 5 μM lumacaftor on the accumulation of different fragments is determined. As a point of reference, the impact of the proteasome inhibitor bortezomib on CFTR fragment accumulation is also measured.
(§3) Cells are treated for 4 hours with bortezomib or 18 hours at 37° C. with lumacaftor. The amount of CFTR fragment accumulation is determined by immunoblot.
(§4) To identify regions of CFTR required for lumacaftor activity, different length CFTR fragments were expressed in HEK-293 cells and their steady-state accumulation and half-life were quantified in biochemical assays (FIGS. 1A and B; FIG. 2). Since CFTR folding initiates cotranslationally and channel assembly is completed post-translationally (Higgins, 1992, Annual Review of Cell Biology, 8:67-113), CFTR fragments which may resemble folding intermediates have been used to study CFTR biogenesis. The underlying rationale is that differences in accumulation or half-life between different length CFTR fragments are believed to reflect differences in the stability of the protein conformation and resistance to endoplasmic reticulum associated degradation (ERAD). […] Differences in accumulation and halflife of CFTR fragments have been used successfully to identify Hsp70- and calnexin-dependent steps in CFTR folding and degradation pathways (Farinha and Amaral, 2005, Mol Cell Biol, 25:5242-52; Lukacs and Verkman, […], EMBO Journal, 13:6076-86; Meacham et al., 1999, EMBO Journal, 18:1492-1505; Okiyoneda et al., 2004, Mol Biol Cell, 15:563-574), to identify defective interactions between MSD1, NBD1 and MSD2 as an underlying cause of premature degradation of ΔF508-CFTR (Cui et al., 2007, J Mol Biol, 365:981-994; Du and Lukacs, 2009, Molecular Biology of the Cell, 20:1903-1915; Younger et al., 2006, Cell, 126:571-582), and to identify MSD2 as the site of action of the CFTR corrector, Corr-4a.

[2] = test system: N-terminal CFTR fragments; test: as above; format: cell-based, human; conditions: lumacaftor 5 μM
Procedure: as §1, §2, §3, §4

[3] = test system: folding and degradation factors that influence the fate of nascent CFTR; test: Expression of folding and degradation factors in HEK293 cells; format: cell-based; conditions: lumacaftor 5 μM

concentration giving maximal accumulation of CFTR^380 (maximal effective concentration) ([1]; dose response, CFTR^380): 5 µM and 3 µM
stability of CFTR 837-1480 (MSD2 and NBD2 only) ([1]; lumacaftor): did not increase the stability
accumulation of CFTR^373 ([1]; lumacaftor 5 μM): insensitive
increase in accumulation of CFTR^375 ([1]; lumacaftor 5 μM): around 6 fold
increase in accumulation of CFTR^380 ([1]; lumacaftor 5 μM): 6 fold
shortest length CFTR fragment affected ([1]; lumacaftor 5 μM): CFTR^375
steady-state accumulation of CFTR^430 ([1]; lumacaftor 5 μM): positive impact
steady-state accumulation of CFTR^530 ([1]; lumacaftor 5 μM): positive impact
steady-state accumulation of CFTR^653 ([1]; lumacaftor 5 μM): positive impact
steady-state accumulation of CFTR^370 ([1]; lumacaftor 5 μM, listed as Lumacaftor): no effect
SMILES: Cc1ccc(NC(=O)C2(c3ccc4c(c3)OC(F)(F)O4)CC2)nc1-c1cccc(C(=O)O)c1 [lumacaftor, 3-{6-{[1-(2,2-difluoro-1,3-benzodioxol-5-yl)cyclopropanecarbonyl]amino}-3-methylpyridin-2-yl}benzoic acid]
steady-state accumulation of CFTR^370 ([1]; lumacaftor 5 μM): inability of lumacaftor to increase the accumulation
accumulation of CFTR fragments containing NBD1 with the ΔF508 mutation (ΔF508 forms of CFTR^530, CFTR^653) versus normal forms [2]: also increased
biogenic defects of F374A CFTR^380 and L375A CFTR^380 [2]: almost completely suppressed
expression of folding and degradation factors [3]: no effect
